Among the data in US9579314B2 (priority 2015, dated 2017) are IC50 values, retold here.

Structures are written as SMILES. Bounds are passed on as bounds.

Chain of Human β2 adrenoceptor (P07550 whole entry): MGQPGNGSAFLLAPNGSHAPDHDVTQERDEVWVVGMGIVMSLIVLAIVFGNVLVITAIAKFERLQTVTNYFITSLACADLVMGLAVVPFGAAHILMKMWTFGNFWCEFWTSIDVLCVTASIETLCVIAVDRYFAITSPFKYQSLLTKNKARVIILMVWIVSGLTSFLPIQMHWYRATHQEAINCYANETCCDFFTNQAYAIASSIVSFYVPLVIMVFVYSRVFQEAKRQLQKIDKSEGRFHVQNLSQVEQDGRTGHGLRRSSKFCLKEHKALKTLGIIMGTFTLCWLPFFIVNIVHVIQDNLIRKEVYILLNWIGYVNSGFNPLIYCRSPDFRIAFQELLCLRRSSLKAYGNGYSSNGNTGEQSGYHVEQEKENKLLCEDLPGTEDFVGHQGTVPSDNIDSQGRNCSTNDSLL

This experiment concerns the target Human β2 adrenoceptor (Homo sapiens, UniProt P07550). The conditions noted are these: read-out: B2 binding affinity.
For `O=C(NCCCOc1cccc([C@](O)(C(=O)OC[C@H]2CCN(Cc3ccccc3)C2)c2ccccc2)c1)c1ccc(CNC[C@H](O)c2ccc(O)c3[nH]c(=O)ccc23)cc1` [Compound 160, ((S)-1-benzylpyrrolidin-3-yl)methyl (S)-2-hydroxy-2-(3-(3-(4-((((R)-2-hydroxy-2-(8-hydroxy-2-oxo-1,2-dihydroquinolin-5-yl)ethyl)amino)methyl)benzamido)propoxy)phenyl)-2-phenylacetate], the IC50 was under 0.3 nM. Consider `O=C(NCCCOc1cccc([C@](O)(C(=O)O[C@@H]2CCN(Cc3ccccc3)C2)c2ccccc2)c1)c1ccc(CNC[C@H](O)c2ccc(O)c3[nH]c(=O)ccc23)cc1` [Compound 163, (R)-1-benzylpyrrolidin-3-yl (S)-2-hydroxy-2-(3-(3-(4-((((R)-2-hydroxy-2-(8-hydroxy-2-oxo-1,2-dihydroquinolin-5-yl)ethyl)amino)methyl)benzamido)propoxy)phenyl)-2-phenylacetate], for which the IC50 was under 0.3 nM. As for `COc1cc(NC(=O)NCc2ccc(COc3cccc([C@](O)(C(=O)OC4CCN(Cc5ccccc5)CC4)c4ccccc4)c3)cc2)ccc1CNC[C@H](O)c1ccc(O)c2[nH]c(=O)ccc12` [Compound 167, 1-benzylpiperidin-4-yl (S)-2-hydroxy-2-(3-((4-((3-(4-((((R)-2-hydroxy-2-(8-hydroxy-2-oxo-1,2-dihydroquinolin-5-yl)ethyl)amino)methyl)-3-methoxyphenyl)ureido)methyl)benzyl)oxy)phenyl)-2-phenylacetate], the figure is 0.3 to 3 nM; as for `CN1CCC[C@@H](OC(=O)[C@](O)(c2ccccc2)c2cccc(OCCCCCNC[C@H](O)c3ccc(O)c4[nH]c(=O)ccc34)c2)C1` [Compound 25], under 0.3 nM. For `COc1cc(CNC[C@H](O)c2ccc(O)c3[nH]c(=O)ccc23)ccc1NC(=O)NCc1ccc(COc2cccc([C@](O)(C(=O)OC3CCN(Cc4ccccc4)CC3)c3ccccc3)c2)cc1` [Compound 168, 1-benzylpiperidin-4-yl (S)-2-hydroxy-2-(3-((4-((3-(4-((((R)-2-hydroxy-2-(8-hydroxy-2-oxo-1,2-dihydroquinolin-5-yl)ethyl)amino)methyl)-2-methoxyphenyl)ureido)methyl)benzyl)oxy)phenyl)-2-phenylacetate], the IC50 lay within 0.3 to 3 nM.

`CN1CC[C@@H](OC(=O)C(O)(c2ccccc2)c2cccc(C(=O)NCCCCNC[C@H](O)c3ccc(O)c4[nH]c(=O)ccc34)c2)C1` (stereo partly drawn) [Compound 49, (R)-1-methylpyrrolidin-3-yl 2-hydroxy-2-(3-((4-(((R)-2-hydroxy-2-(8-hydroxy-2-oxo-1,2-dihydroquinolin-5-yl)ethyl)amino)butyl)carbamoyl)phenyl)-2-phenylacetate diformate]: the IC50 was under 0.3 nM. Consider `O=C(NCCCOc1cccc([C@](O)(C(=O)OC2CN(Cc3ccccc3)C2)c2ccccc2)c1)c1ccc(CNC[C@H](O)c2ccc(O)c3[nH]c(=O)ccc23)cc1` [Compound 165, 1-benzylazetidin-3-yl (S)-2-hydroxy-2-(3-(3-(4-((((R)-2-hydroxy-2-(8-hydroxy-2-oxo-1,2-dihydroquinolin-5-yl)ethyl)amino)methyl)benzamido)propoxy)phenyl)-2-phenylacetate], for which the IC50 is under 0.3 nM. Regarding `O=C(NCc1ccc(COc2cccc([C@](O)(C(=O)OC3CCN(Cc4ccccc4)CC3)c3ccccc3)c2)cc1)Nc1ccc(CNC[C@H](O)c2ccc(O)c3[nH]c(=O)ccc23)cc1` [Compound 166, 1-Benzylpiperidin-4-yl (S)-2-hydroxy-2-(3-((4-((3-(4-((((R)-2-hydroxy-2-(8-hydroxy-2-oxo-1,2-dihydroquinolin-5-yl)ethyl)amino)methyl)phenyl)ureido)-methyl)benzyl)oxy)phenyl)-2-phenylacetate], the IC50 lay within 0.3 to 3 nM.
